# Target: human PCSK9 (Homo sapiens, UniProt Q8NBP7)
# Assay: PCSK9 ligand binding TR-FRET assay (interference with binding of human PCSK9 to human LDLR)
# Settings: for Max % inhibition: PCSK9 FRET assay, efficacy (Amax), 100% = 1 uM unlabeled human PCSK9, 0% = DMSO; for IC50: TR-FRET, human PCSK9 Alexa Fluor 647 / human LDLR extracellular domain-Europium Kryptate, read-out: PCSK9 FRET Assay IC50
# Outline: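 Threefold compound dilutions were pre-incubated 30 min with PCSK9, after which 4 nM Europium Kryptate-tagged human LDLR ectodomain was added for a further 2 h.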
# Sequence of human PCSK9 (Q8NBP7 153-692): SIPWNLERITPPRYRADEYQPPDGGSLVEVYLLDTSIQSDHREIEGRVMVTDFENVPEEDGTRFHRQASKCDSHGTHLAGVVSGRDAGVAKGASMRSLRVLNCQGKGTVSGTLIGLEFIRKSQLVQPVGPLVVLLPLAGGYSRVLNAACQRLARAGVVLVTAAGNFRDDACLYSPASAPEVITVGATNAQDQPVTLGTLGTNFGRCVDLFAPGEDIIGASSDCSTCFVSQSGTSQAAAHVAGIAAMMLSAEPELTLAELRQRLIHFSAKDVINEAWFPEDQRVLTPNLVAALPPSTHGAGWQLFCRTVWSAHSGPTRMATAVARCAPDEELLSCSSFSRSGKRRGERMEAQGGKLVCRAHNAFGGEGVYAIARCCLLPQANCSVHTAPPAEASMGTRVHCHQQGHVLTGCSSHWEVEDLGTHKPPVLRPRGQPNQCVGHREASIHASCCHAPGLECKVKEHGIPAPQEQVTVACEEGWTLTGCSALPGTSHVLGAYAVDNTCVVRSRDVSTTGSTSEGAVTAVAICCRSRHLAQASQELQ
# Sequence of human PCSK9 (Q8NBP7 31-152 partner limits assumed): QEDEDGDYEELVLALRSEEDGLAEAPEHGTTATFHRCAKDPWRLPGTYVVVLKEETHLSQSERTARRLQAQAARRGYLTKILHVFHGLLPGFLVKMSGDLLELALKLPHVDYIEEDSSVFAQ
Structure (SMILES),Max % inhibition [%],IC50 [nM]
"COC[C@@H]1NC(=O)[C@H](C)N(Cc2ccc(Cl)cc2Oc2ccc(-n3cnc(CN4CCOCC4)c3C)cc2)C(=O)C[C@@H](Cc2ccccc2)C(=O)N(C)[C@H]2CCCC[C@@H]2NC(=O)C[C@H](Cc2ccc(Cl)cc2)N(C)C1=O [Compound 266, (4S,7S,10S,14R,16aS,20aS)-14-benzyl-11-(4-chloro-2-(4-(5-methyl-4-(morpholinomethyl)-1H-imidazol-1-yl)phenoxy)benzyl)-4-(4-chlorobenzyl)-7-(methoxymethyl)-5,10,16-trimethylhexadecahydrobenzo[l][1,4,7,11,14]pentaazacyclooctadecine-2,6,9,12,15(3H)-pentaone]",106.30,1.9
"COC[C@@H]1NC(=O)[C@H](C)N(Cc2ccc(Cl)cc2Oc2ccc(-c3cnc(CN(C)C)n3C)cc2)C(=O)C[C@@H](Cc2ccon2)C(=O)N(C)[C@H]2CCCC[C@@H]2NC(=O)C[C@H](Cc2ccc(Cl)cc2)N(C)C1=O [Compound 18, (4S,7S,10S,14R,16aS,20aS)-11-(4-chloro-2-(4-(2-((dimethylamino)methyl)-1-methyl-1H-imidazol-5-yl)phenoxy)benzyl)-4-(4-chlorobenzyl)-14-(isoxazol-3-ylmethyl)-7-(methoxymethyl)-5,10,16-trimethylhexadecahydrobenzo[l][1,4,7,11,14]pentaazacyclooctadecine-2,6,9,12,15(3H)-pentaone]",86.12,1.1
"CCN(CC)Cc1cn(-c2ccc(Oc3cc(Cl)ccc3CN3C(=O)C[C@@H](Cc4ccccc4)C(=O)N(C)[C@@H](C)CNC(=O)C[C@H](Cc4ccc(Cl)cc4)N(C)C(=O)[C@H](COC)NC(=O)[C@@H]3C)cc2)nn1 [Compound 120, (2S,5S,8S,13S,16R)-16-benzyl-1-(4-chloro-2-(4-(4-((diethylamino)methyl)-1H-1,2,3-triazol-1-yl)phenoxy)benzyl)-8-(4-chlorobenzyl)-5-(methoxymethyl)-2,7,13,14-tetramethyl-1,4,7,11,14-pentaazacyclooctadecane-3,6,10,15,18-pentaone]",48.04,23.6
"COC[C@@H]1NC(=O)[C@H](C)N(Cc2ccc(Cl)cc2Oc2ccc(-c3cnc(CN(C)C)n3C)cc2)C(=O)CCC(=O)N(C)[C@H]2CCCC[C@@H]2NC(=O)C[C@H](Cc2ccc(Cl)cc2)N(C)C1=O [Compound 202, (4S,7S,10S,16aS,20aS)-11-(4-chloro-2-(4-(2-((dimethylamino)methyl)-1-methyl-1H-imidazol-5-yl)phenoxy)benzyl)-4-(4-chlorobenzyl)-7-(methoxymethyl)-5,10,16-trimethylhexadecahydrobenzo[l][1,4,7,11,14]pentaazacyclooctadecine-2,6,9,12,15(3H)-pentaone]",95.27,2.9
"COC[C@@H]1NC(=O)[C@H](C)N(Cc2ccc(Cl)cc2Oc2ccc(-c3cnc(OC)nc3)cc2)C(=O)C[C@@H](Cc2ccccc2)C(=O)N(C)[C@@H](C)CNC(=O)C[C@H](Cc2ccc(Cl)cc2)N(C)C1=O [Compound 69, (2S,5S,8S,13S,16R)-16-benzyl-1-(4-chloro-2-(4-(2-methoxypyrimidin-5-yl)phenoxy)benzyl)-8-(4-chlorobenzyl)-5-(methoxymethyl)-2,7,13,14-tetramethyl-1,4,7,11,14-pentaazacyclooctadecane-3,6,10,15,18-pentaone]",64.09,43
"COC[C@@H]1NC(=O)[C@H](C)N(Cc2ccc(Cl)cc2Oc2ccc(-c3cnc(CN(C)C)n3C)cc2)C(=O)CCC(=O)N(C)[C@@H](C)CNC(=O)C[C@H](Cc2ccc(Cl)cc2)N(C)C1=O [Compound 195, (2S,5S,8S,13S)-1-(4-chloro-2-(4-(2-((dimethylamino)methyl)-1-methyl-1H-imidazol-5-yl)phenoxy)benzyl)-8-(4-chlorobenzyl)-5-(methoxymethyl)-2,7,13,14-tetramethyl-1,4,7,11,14-pentaazacyclooctadecane-3,6,10,15,18-pentaone]",100.43,73.4

# More lines, now with the values ahead:
Max % inhibition [%],IC50 [nM],Structure (SMILES)
94.30,1.3,"COC[C@@H]1NC(=O)[C@H](C)N(Cc2ccc(Cl)cc2Oc2ccc(-c3cnc(CN(C)C)n3C)cc2)C(=O)C[C@@H](Cc2ccccc2)C(=O)N(C)[C@H]2CCOC[C@@H]2NC(=O)C[C@H](Cc2ccc(Cl)cc2)N(C)C1=O [Compound 187, (4S,7S,10S,14R,16aS,20aR)-14-benzyl-11-(4-chloro-2-(4-(2-((dimethylamino)methyl)-1-methyl-1H-imidazol-5-yl)phenoxy)benzyl)-4-(4-chlorobenzyl)-7-(methoxymethyl)-5,10,16-trimethyltetradecahydro-1H-pyrano[3,4-l][1,4,7,11,14]pentaazacyclooctadecine-2,6,9,12,15(3H)-pentaone]"
84.80,73.3,"CC[C@H]1C(=O)N[C@@H](COC)C(=O)N(C)[C@@H](Cc2ccc(Cl)cc2)CC(=O)NC[C@H](C)N(C)C(=O)[C@H](C)CC(=O)N1Cc1ccc(Cl)cc1Oc1ccc(-c2cnc(CN(C)C)n2C)cc1 [Compound 173, (2S,5S,8S,13S,16R)-1-(4-chloro-2-(4-(2-((dimethylamino)methyl)-1-methyl-1H-imidazol-5-yl)phenoxy)benzyl)-8-(4-chlorobenzyl)-2-ethyl-5-(methoxymethyl)-7,13,14,16-tetramethyl-1,4,7,11,14-pentaazacyclooctadecane-3,6,10,15,18-pentaone]"
101.21,41,"COC[C@@H]1NC(=O)[C@H](C)N(Cc2ccc(Cl)cc2Oc2ccc(-c3cnc(CN(C)C)n3C)cc2)C(=O)C[C@@H](Cc2ccccc2)C(=O)N(C)C(C)C(C)NC(=O)C[C@H](Cc2ccc(Cl)cc2)N(C)C1=O (stereo partly drawn) [Compound 50, (2S,5S,8S,16R)-16-benzyl-1-(4-chloro-2-(4-(2-((dimethylamino)methyl)-1-methyl-1H-imidazol-5-yl)phenoxy)benzyl)-8-(4-chlorobenzyl)-5-(methoxymethyl)-2,7,12,13,14-pentamethyl-1,4,7,11,14-pentaazacyclooctadecane-3,6,10,15,18-pentaone]"
60.09,787,"C[C@H]1CNC(=O)C[C@H](Cc2ccc(Cl)cc2)N(C)C(=O)[C@H](C2COC2)NC(=O)[C@H](C)N(Cc2ccc(Cl)cc2Oc2ccc(-c3cnc(CN(C)C)n3C)cc2)C(=O)C[C@@H](Cc2ccccc2)C(=O)N1C [Compound 31, (2S,5S,8S,13S,16R)-16-benzyl-1-(4-chloro-2-(4-(2-((dimethylamino)methyl)-1-methyl-1H-imidazol-5-yl)phenoxy)benzyl)-8-(4-chlorobenzyl)-2,7,13,14-tetramethyl-5-(oxetan-3-yl)-1,4,7,11,14-pentaazacyclooctadecane-3,6,10,15,18-pentaone]"
72.51,17.4,"COC[C@@H]1NC(=O)[C@H](C)N(Cc2ccc(Cl)cc2Oc2ccc(-c3cnc(OC)n3C)cc2)C(=O)C[C@@H](Cc2ccccc2)C(=O)N(C)[C@@H](C)CNC(=O)C[C@H](Cc2ccc(Cl)cc2)N(C)C1=O [Compound 197, (2S,5S,8S,13S,16R)-16-benzyl-1-(4-chloro-2-(4-(2-methoxy-1-methyl-1H-imidazol-5-yl)phenoxy)benzyl)-8-(4-chlorobenzyl)-5-(methoxymethyl)-2,7,13,14-tetramethyl-1,4,7,11,14-pentaazacyclooctadecane-3,6,10,15,18-pentaone]"
109.94,1.4,"COC[C@@H]1NC(=O)[C@H](C)N(Cc2ccc(Cl)cc2Oc2ccc(-c3cnc([C@@H](C)N(C)C)n3C)cc2)C(=O)C[C@@H](Cc2ccccc2)C(=O)N(C)[C@H]2CCCC[C@@H]2NC(=O)C[C@H](Cc2ccc(Cl)cc2)N(C)C1=O [Compound 104, (4S,7S,10S,14R,16aS,20aS)-14-benzyl-11-(4-chloro-2-(4-(2-((R)-1-(dimethylamino)ethyl)-1-methyl-1H-imidazol-5-yl)phenoxy)benzyl)-4-(4-chlorobenzyl)-7-(methoxymethyl)-5,10,16-trimethylhexadecahydrobenzo[l][1,4,7,11,14]pentaazacyclooctadecine-2,6,9,12,15(3H)-pentaone]"
64.23,8.8,"CCC(O)c1ncc(-c2ccc(Oc3cc(Cl)ccc3CN3C(=O)C[C@@H](Cc4ccccc4)C(=O)N(C)[C@@H](C)CNC(=O)C[C@H](Cc4ccc(Cl)cc4)N(C)C(=O)[C@H](COC)NC(=O)[C@@H]3C)cc2)n1C (stereo partly drawn) [Compound 151, (2S,5S,8S,13S,16R)-16-benzyl-1-(4-chloro-2-(4-(2-(1-hydroxypropyl)-1-methyl-1H-imidazol-5-yl)phenoxy)benzyl)-8-(4-chlorobenzyl)-5-(methoxymethyl)-2,7,13,14-tetramethyl-1,4,7,11,14-pentaazacyclooctadecane-3,6,10,15,18-pentaone]"
106.74,2.2,"CC[C@H]1C(=O)N[C@@H](COC)C(=O)N(C)[C@@H](Cc2ccc(Cl)cc2F)CC(=O)NC[C@H](C)N(C)C(=O)[C@H](Cc2ccccc2)CC(=O)N1Cc1ccc(Cl)cc1Oc1ccc(-c2cnc(CN(C)C)n2C)cc1 [Compound 248, (2S,5S,8S,13S,16R)-16-benzyl-1-(4-chloro-2-(4-(2-((dimethylamino)methyl)-1-methyl-1H-imidazol-5-yl)phenoxy)benzyl)-8-(4-chloro-2-fluorobenzyl)-2-ethyl-5-(methoxymethyl)-7,13,14-trimethyl-1,4,7,11,14-pentaazacyclooctadecane-3,6,10,15,18-pentaone]"
101.52,2.1,"COC[C@@H]1NC(=O)[C@H](CCCN(C)C)N(Cc2ccc(Cl)cc2Oc2ccc(-c3cnc(CN(C)C)n3C)cc2)C(=O)C[C@@H](Cc2ccccc2)C(=O)N(C)[C@@H](C)[C@H](C)NC(=O)C[C@H](Cc2ccc(Cl)cc2)N(C)C1=O [Compound 90, (2S,5S,8S,12S,13S,16R)-16-benzyl-1-(4-chloro-2-(4-(2-((dimethylamino)methyl)-1-methyl-1H-imidazol-5-yl)phenoxy)benzyl)-8-(4-chlorobenzyl)-2-(3-(dimethylamino)propyl)-5-(methoxymethyl)-7,12,13,14-tetramethyl-1,4,7,11,14-pentaazacyclooctadecane-3,6,10,15,18-pentaone]"
